Measured values: patent publication US20120065152A1 (SHIRE LLC, priority 2010, published 2012)
Read-outs that look alike come from different tables or passages of the source.

Columns and labels:
[1] = Pharmacokinetics of guanfacine and prodrug in rat hepatic portal and tail veins after oral prodrug; assay type: in vivo; settings: 1 mg/kg
Source text: The collection of blood from the hepatic portal vein following oral administration allows the analysis of absorbed prodrug and active drug levels prior to first pass metabolism in the liver. Systemic levels can be measured by sampling of blood from the tail vein. Rats were surgically prepared under isofluorane anaesthesia by attaching a silicon catheter to the portal vein then exteriorising it at the nape of the neck with a blood collection port attached. Oral doses of compound 3 were administered by gavage as a single bolus dose at a dose volume of 10 mL/kg. At each sampling time serial point blood samples (approximately 0.2 mL) were taken simultaneously from the lateral tail vein cannula and the hepatic portal cannula. After collection of the final blood sample each animal was killed by cervical dislocation. […] Pharmacokinetic parameters in portal and systemic plasma were derived by non-compartmental analysis (linear/logarithmic trapezoidal) using WinNonlin (Version 4.1) software.

[2] = Microdose comparative bioavailability study in healthy adult subjects; assay type: in vivo; settings: both sexes, plasma, healthy human volunteers, oral, 100 µg free base
Method: Blood samples were withdrawn pre-dose and at 0.5, 1, 2, 3, 4, 5, 6, 8, 12, 16, 24, 32, and 48 hours post dose and submitted to analysis for the parent drug and prodrug using a validated LC-MS-MS assay. The following pharmacokinetic parameters derived from the plasma analytical data were determined;

rat GIT transit = assay: Charcoal propulsion test (gut motility) in rat; assay type: in vivo; settings: oral, 60 min before charcoal
Method: The effect of a drug on gut motility can be studied by means of the charcoal propulsion test.
The method used was based on that described by Takemori et al. (J. Pharmacol. Exp. Ther. 169:39, 1969). Test treatments were administered orally 60 minutes prior to an oral dose of a 10% suspension of charcoal in 2.5% gum Arabic (2 ml/kg). Twenty minutes after dosing with charcoal, the rats were sacrificed and the entire gastrointestinal tract was removed quickly and carefully. The distance that the charcoal meal had traveled toward the caecum was measured and expressed as a percentage of the total gut length.

a-2A adrenoceptor = target: T1, a-2A adrenoceptor (Homo sapiens, UniProt P08913); assay: a-2 adrenoceptor binding assay, [3H] RX821002 competition; settings: human recombinant CHO cells, [3H] RX821002 (1 nM)
T1 construct: expressed in transfected cells; host or cells: CHO cells
T1 sequence (P08913 1-465): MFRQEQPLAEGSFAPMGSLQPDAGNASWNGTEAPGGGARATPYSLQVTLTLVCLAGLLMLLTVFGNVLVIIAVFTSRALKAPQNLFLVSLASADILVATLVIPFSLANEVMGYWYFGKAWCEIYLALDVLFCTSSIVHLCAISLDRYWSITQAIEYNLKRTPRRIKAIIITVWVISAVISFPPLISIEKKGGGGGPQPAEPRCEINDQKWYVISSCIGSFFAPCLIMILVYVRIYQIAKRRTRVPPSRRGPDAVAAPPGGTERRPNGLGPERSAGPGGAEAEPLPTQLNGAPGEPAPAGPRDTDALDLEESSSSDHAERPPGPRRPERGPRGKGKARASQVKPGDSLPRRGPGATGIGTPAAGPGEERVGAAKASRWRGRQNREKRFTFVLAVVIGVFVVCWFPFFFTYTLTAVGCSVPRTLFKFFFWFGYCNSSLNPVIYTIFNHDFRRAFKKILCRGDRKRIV
Source text: The activation of this receptor is responsible for its intended therapeutic effect. […] The binding assay methodology employed in this study followed that described by […] et al. (Eur. J. Pharmacol. 167:95-104, 1989) and used human recombinant CHO cells expressing a-2 adrenceptors. The competitive binding ligand was [3H]

[3] = Comparative bioavailability study of guanfacine in monkeys given guanfacine or guanfacine prodrug; assay type: in vivo, monkey
Method: Blood samples were taken at various times after administration and submitted to analysis for the parent drug and prodrug using a qualified LC-MS-MS assay. The following pharmacokinetic parameters derived from the plasma analytical data were determined using Win Nonlin;

Solubility = settings: Solubility

CCOC(=O)NC(N)=NC(=O)Cc1c(Cl)cccc1Cl.Cl [Compound 3, {N′-[2-(2,6-Dichloro-phenyl)-acetyl]-guanidinocarbonyloxy}ethane Hydrochloride]
AUC ([1]; hepatic portal vein plasma, read-out: Hepatic portal vein Prodrug AUC): 397 ng·h/mL | Cmax ([1]; hepatic portal vein plasma, read-out: Hepatic portal vein Prodrug Cmax): 149 ng/mL | AUC ([1]; tail vein (systemic) plasma, read-out: Tail vein Prodrug AUC): 88.6 ng·h/mL | Cmax ([1]; tail vein (systemic) plasma, read-out: Tail vein Prodrug Cmax): 16.4 ng/mL | half-life ([2]; n = 4, read-out: t½, analyte Compound 3 (converted)): 57 ± 11.4 min | AUC(0-t) ([2]; read-out: AUC0-t, analyte Compound 3): 0.092 ± 0.043 ng·h/mL | Cmax ([2]; read-out: Cmax, analyte Compound 3): 0.089 ± 0.038 ng/mL | % inhibition of rat GIT transit (rat GIT transit; dose 00.1 mg/kg (guanfacine free base equivalents)): 15% | % inhibition of rat GIT transit (rat GIT transit; dose 00.3 mg/kg (guanfacine free base equivalents)): 56% | % inhibition of rat GIT transit (rat GIT transit; dose 100 mg/kg (guanfacine free base equivalents)): 57% | Ki (a-2A adrenoceptor): > 10 µM | Cmax ([3]; monkey, plasma, po, 0.5 mg/kg): 0.93 ng/mL | Time after administration up to which systemic prodrug was detectable ([3]; monkeys, 0.5 mg/kg guanfacine free base equivalents): up to 24 hours | solubility (Solubility; DMSO, organic solvent or mixture, in DMSO): > 10000 µg/mL | solubility (Solubility; water, in water): < 1000 µg/mL
